Holding throughout (type): functional, cell-based
For one assay, the system named is A549. The assay is described as follows: Antiproliferative activity against human A549 cells harboring KRAS G12S mutant assessed as inhibition of cell growth.
The test system of the next assay is SW-620. The experiment in a line: Antiproliferative activity against human SW620 cells harboring KRAS G12V mutant assessed as inhibition of cell growth.
For a further assay, the system named is DLD-1. The experiment in a line: Antiproliferative activity against human DLD-1 cells harboring KRAS G13D mutant assessed as inhibition of cell growth.

Broadly, the IC50 is the point on the concentration scale where inhibition reaches its midpoint. In the case of `COc1cc2nc(C)nc(N[C@H](C)c3cc(N)cc(C(F)(F)F)c3)c2cc1O[C@H]1CCOC1`, the results for the IC50 in the assay on A549, in the assay on SW-620 and in the assay on DLD-1 were 0.106 µM, 0.0505 µM and 0.169 µM, respectively.
The corresponding values for `COc1ccc(C(=O)N2CCC3(CCC(CN4CCN(C(=O)[C@H]5CC[C@H](c6cc7c(N[C@H](C)c8cc(N)cc(C(F)(F)F)c8)ncnc7n(C)c6=O)CC5)CC4)CC3)CC2)cc1N1CCC(=O)NC1=O` are 0.0522 µM, 0.0367 µM and 0.107 µM.

For the origin of these results see ChEMBL document CHEMBL5523711, “Design, synthesis, and bioevaluation of SOS1 PROTACs derived from pyrido[2,3-d]pyrimidin-7-one-based SOS1 inhibitor” (Bioorg Med Chem Lett, 2024).
